System: c-myc in 22RV-1 cells
Experiment: Human c-myc ELISA assay
Format: cell-based
Details: Homo sapiens; for Emax: 22Rv1, 18 h, read-out: Degradation of BRD4: Maximum inhibition (%) c-Myc ELISA in 22RV1 cells; for DC50: 22Rv1, read-out: Degradation of BRD4: DC50 (uM) c-Myc ELISA in 22RV1 cells
Method in brief: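 c-myc levels measured by ELISA in RIPA lysates of 22RV-1 cells, calibrated with a 333-0 pg/ml standard curve. Lysates came from cells exposed for 18 h to an 8-point, 1:3 dose series starting at 300 nM or 1 μM final in 0.1% DMSO. Suppression potency given as DC50.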

| DC50 [µM] | Compound | Emax [%] |
| --- | --- | --- |
| > 1 | Cc1ncsc1-c1ccc([C@H](C)NC(=O)[C@@H]2C[C@@H](O)CN2C(=O)[C@@H](C(C)C)n2cc(-c3cc(F)cc(O[C@H]4C[C@H](NC(=O)C[C@@H]5N=C(c6ccc(Cl)cc6)c6c(sc(C)c6C)-n6c(C)nnc65)C4)c3)cn2)cc1 [Example 253] | 33.4 |
| < 0.01 | Cc1ncsc1-c1ccc([C@H](C)NC(=O)[C@@H]2C[C@@H](O)CN2C(=O)[C@H](C(C)C)n2cc(-c3cc(F)cc(O[C@H]4C[C@H](NC(=O)C[C@@H]5N=C(c6ccc(Cl)cc6)c6c(sc(C)c6C)-n6c(C)nnc65)C4)c3)cn2)cc1 [Example 254] | 95.4 |
| > 1 | Cc1ncsc1-c1ccc([C@H](C)NC(=O)[C@@H]2C[C@@H](O)CN2C(=O)[C@@H](C(C)C)n2cc(-c3ccc(N4CC(NC(=O)C[C@@H]5N=C(c6ccc(Cl)cc6)c6c(sc(C)c6C)-n6c(C)nnc65)C4)nc3)cn2)cc1 [Example 255] | 35.5 |
| < 0.01 | Cc1ncsc1-c1ccc([C@H](C)NC(=O)[C@@H]2C[C@@H](O)CN2C(=O)[C@@H](NC(=O)CO[C@H]2C[C@H](OCCNC(=O)C[C@@H]3N=C(c4ccc(Cl)cc4)c4c(sc(C)c4C)-n4c(C)nnc43)C2)C(C)(C)C)cc1 [Example 256] | 89.5 |
| 0.01 to 0.1 | Cc1ncoc1-c1ccc(CNC(=O)[C@@H]2C[C@@H](O)CN2C(=O)[C@@H](NC(=O)COc2ccc(O[C@H]3C[C@@H](NC(=O)C[C@@H]4N=C(c5ccc(Cl)cc5)c5c(sc(C)c5C)-n5c(C)nnc54)C3)nc2)C(C)(C)C)cc1 [Example 258] | 87.5 |
| 0.1 to 1 | Cc1sc2c(c1C)C(c1ccc(Cl)cc1)=N[C@@H](CC(=O)N[C@H]1C[C@@H](Oc3ccc(OCC(=O)N[C@H](C(=O)N4C[C@H](O)C[C@H]4C(=O)N[C@@H](C)c4ccc(-n5ccnc5C)cc4)C(C)(C)C)cn3)C1)c1nnc(C)n1-2 [Example 259] | 65.7 |
| > 1 | Cc1sc2c(c1C)C(c1ccc(Cl)cc1)=N[C@@H](CC(=O)N[C@H]1C[C@@H](Oc3ccc(OCC(=O)N[C@H](C(=O)N4C[C@H](O)C[C@H]4C(=O)N[C@@H](C)c4ccc(-c5nccn5C)cc4)C(C)(C)C)cn3)C1)c1nnc(C)n1-2 [Example 260] | 13 |
| 0.01 to 0.1 | Cc1sc2c(c1C)C(c1ccc(Cl)cc1)=N[C@@H](CC(=O)N[C@H]1C[C@@H](Oc3ccc4oc(C(=O)N[C@H](C(=O)N5C[C@H](O)C[C@H]5C(=O)N[C@@H](C)c5ccc(-n6ccnc6C)cc5)C(C)(C)C)cc4c3)C1)c1nnc(C)n1-2 [Example 261] | 92.7 |
| 0.1 to 1 | Cc1sc2c(c1C)C(c1ccc(Cl)cc1)=N[C@@H](CC(=O)N[C@H]1C[C@@H](Oc3ccc4oc(C(=O)N[C@H](C(=O)N5C[C@H](O)C[C@H]5C(=O)N[C@@H](C)c5ccc(-c6nccn6C)cc5)C(C)(C)C)cc4c3)C1)c1nnc(C)n1-2 [Example 262] | 55.5 |
| > 1 | Cc1ncsc1-c1ccc([C@H](C)NC(=O)[C@@H]2C[C@@H](O)CN2C(=O)[C@@H](C(C)C)n2cc(-c3ccnc(N4CC[C@H](NC(=O)C[C@@H]5N=C(c6ccc(Cl)cc6)c6c(sc(C)c6C)-n6c(C)nnc65)C4)c3)cn2)cc1 [Example 263] | 23.5 |
| < 0.01 | Cc1ncsc1-c1ccc([C@H](C)NC(=O)[C@@H]2C[C@@H](O)CN2C(=O)[C@H](C(C)C)n2cc(-c3ccnc(N4CC[C@H](NC(=O)C[C@@H]5N=C(c6ccc(Cl)cc6)c6c(sc(C)c6C)-n6c(C)nnc65)C4)c3)cn2)cc1 [Example 264] | 97 |
| 0.01 to 0.1 | Cc1ncsc1-c1ccc([C@H](C)NC(=O)[C@@H]2C[C@@H](O)CN2C(=O)[C@H](C(C)C)n2cc(-c3ccc(N4CC(NC(=O)C[C@@H]5N=C(c6ccc(Cl)cc6)c6c(sc(C)c6C)-n6c(C)nnc65)C4)nc3)cn2)cc1 [Example 265] | 95.9 |
| < 0.01 | Cc1ncsc1-c1ccc([C@H](C)NC(=O)[C@@H]2C[C@@H](O)CN2C(=O)[C@H](C(C)C)n2cc(-c3ccnc(N4CC[C@@H](NC(=O)C[C@@H]5N=C(c6ccc(Cl)cc6)c6c(sc(C)c6C)-n6c(C)nnc65)C4)c3)cn2)cc1 [Example 266] | 97 |
| > 1 | Cc1ncsc1-c1ccc([C@H](C)NC(=O)[C@@H]2C[C@@H](O)CN2C(=O)[C@@H](C(C)C)n2cc(-c3ccnc(N4CC[C@@H](NC(=O)C[C@@H]5N=C(c6ccc(Cl)cc6)c6c(sc(C)c6C)-n6c(C)nnc65)C4)c3)cn2)cc1 [Example 267] | 51.4 |
| 0.01 to 0.1 | Cc1ncsc1-c1ccc([C@H](C)NC(=O)[C@@H]2C[C@@H](O)CN2C(=O)[C@@H](C(C)C)n2cc(-c3ccc(O[C@H]4C[C@H](NC(=O)C[C@@H]5N=C(c6ccc(Cl)cc6)c6c(sc(C)c6C)-n6c(C)nnc65)C4)nc3)cn2)cc1 [Example 268] | 98 |
| < 0.01 | Cc1ncsc1-c1ccc([C@H](C)NC(=O)[C@@H]2C[C@@H](O)CN2C(=O)[C@H](C(C)C)n2cc(-c3ccc(O[C@H]4C[C@H](NC(=O)C[C@@H]5N=C(c6ccc(Cl)cc6)c6c(sc(C)c6C)-n6c(C)nnc65)C4)nc3)cn2)cc1 [Example 269] | 96.4 |
| < 0.01 | Cc1noc(-c2ccc([C@H](C)NC(=O)[C@@H]3C[C@@H](O)CN3C(=O)[C@@H](NC(=O)COc3ccc(O[C@H]4C[C@@H](NC(=O)C[C@@H]5N=C(c6ccc(Cl)cc6)c6c(sc(C)c6C)-n6c(C)nnc65)C4)nc3)C(C)(C)C)cc2)n1 [Example 271] | 96.4 |
| 0.01 to 0.1 | Cc1sc2c(c1C)C(c1ccc(Cl)cc1)=N[C@@H](CC(=O)N[C@H]1C[C@H](Oc3ccc(CC(=O)N[C@H](C(=O)N4C[C@H](O)C[C@H]4C(=O)N[C@@H](C)c4ccc(-n5ccnc5C)cc4)C(C)(C)C)cc3)C1)c1nnc(C)n1-2 [Example 272] | 95.9 |
| > 1 | Cc1sc2c(c1C)C(c1ccc(Cl)cc1)=N[C@@H](CC(=O)N[C@H]1C[C@H](Oc3ccc(CC(=O)N[C@H](C(=O)N4C[C@H](O)C[C@H]4C(=O)N[C@@H](C)c4ccc(-c5nccn5C)cc4)C(C)(C)C)cc3)C1)c1nnc(C)n1-2 [Example 273] | < 5 |
| < 0.01 | Cc1ncoc1-c1ccc([C@H](C)NC(=O)[C@@H]2C[C@@H](O)CN2C(=O)[C@@H](NC(=O)Cc2ccc(O[C@H]3C[C@H](NC(=O)C[C@@H]4N=C(c5ccc(Cl)cc5)c5c(sc(C)c5C)-n5c(C)nnc54)C3)cc2)C(C)(C)C)cc1 [Example 274] | 95.4 |
| 0.1 to 1 | Cc1noc(-c2ccc([C@H](C)NC(=O)[C@@H]3C[C@@H](O)CN3C(=O)[C@@H](NC(=O)Cc3ccc(O[C@H]4C[C@H](NC(=O)C[C@@H]5N=C(c6ccc(Cl)cc6)c6c(sc(C)c6C)-n6c(C)nnc65)C4)cc3)C(C)(C)C)cc2)n1 [Example 275] | 50.1 |
| > 1 | Cc1ncoc1-c1ccc([C@H](C)NC(=O)[C@@H]2C[C@@H](O)CN2C(=O)[C@@H](C(C)C)n2cc(-c3ccnc(O[C@H]4C[C@@H](NC(=O)C[C@@H]5N=C(c6ccc(Cl)cc6)c6c(sc(C)c6C)-n6c(C)nnc65)C4)c3)cn2)cc1 [Example 276] | 36 |
| 0.01 to 0.1 | Cc1ncoc1-c1ccc([C@H](C)NC(=O)[C@@H]2C[C@@H](O)CN2C(=O)[C@H](C(C)C)n2cc(-c3ccnc(O[C@H]4C[C@@H](NC(=O)C[C@@H]5N=C(c6ccc(Cl)cc6)c6c(sc(C)c6C)-n6c(C)nnc65)C4)c3)cn2)cc1 [Example 277] | 94 |
| < 0.01 | Cc1ncoc1-c1ccc([C@H](C)NC(=O)[C@@H]2C[C@@H](O)CN2C(=O)[C@@H](NC(=O)COc2ccc(O[C@H]3C[C@@H](NC(=O)C[C@@H]4N=C(c5ccc(Cl)cc5)c5c(sc(C)c5C)-n5c(C)nnc54)C3)nc2)C(C)(C)C)cc1 [Example 278] | 95.4 |
| 0.1 to 1 | Cc1sc2c(c1C)C(c1ccc(Cl)cc1)=NC(CC(=O)N[C@H]1C[C@H](Oc3ccc(CC(=O)N[C@H](C(=O)N4C[C@H](O)C[C@H]4C(=O)N[C@@H](C)c4ccc(C#N)cc4)C(C)(C)C)cc3)C1)c1nnc(C)n1-2 (some centres unmarked) [Example 279] | 65.4 |
| 0.01 to 0.1 | Cc1ncsc1-c1ccc([C@H](C)NC(=O)[C@@H]2C[C@@H](O)CN2C(=O)[C@@H](NC(=O)Cc2ccc(O[C@H]3C[C@H](NC(=O)C[C@@H]4N=C(c5ccc(Cl)cc5)c5c(sc(C)c5C)-n5c(C)nnc54)C3)cc2)C(C)C)cc1 [Example 280] | 95.4 |

| Compound | DC50 [µM] | Emax [%] |
| --- | --- | --- |
| Cc1ncsc1-c1ccc([C@H](C)NC(=O)[C@@H]2C[C@@H](O)CN2C(=O)[C@@H](NC(=O)CN2CCC(O[C@H]3C[C@@H](NC(=O)C[C@@H]4N=C(c5ccc(Cl)cc5)c5c(sc(C)c5C)-n5c(C)nnc54)C3)CC2)C(C)(C)C)cc1 [Example 257, (2S,4R)-1-[(2S)-3,3-dimethyl-2-(2-{4-[(1,3-cis)-3-{2-[(9S)-7-(4-chlorophenyl)-4,5,13-trimethyl-3-thia-1,8,11,12-tetraazatricyclo[8.3.0.0^2,^6]trideca-2(6),4,7,10,12-pentaen-9-yl]acetamido}cyclobutoxy]piperidin-1-yl}acetamido)butanoyl]-4-hydroxy-N-[(1S)-1-[4-(4-methyl-1,3-thiazol-5-yl)phenyl]ethyl]pyrrolidine-2-carboxamide] | 0.01 to 0.1 | 87 |
| Cc1ncsc1-c1ccc([C@H](C)NC(=O)[C@@H]2C[C@@H](O)CN2C(=O)[C@@H](NC(=O)Cc2ccc(O[C@H]3C[C@@H](NC(=O)C[C@@H]4N=C(c5ccc(Cl)cc5)c5c(sc(C)c5C)-n5c(C)nnc54)C3)nc2)C(C)(C)C)cc1 [Example 270, (2S,4R)-1-[(2S)-3,3-dimethyl-2-(2-{6-[(1,3cis)-3-{2-[(9S)-7-(4-chlorophenyl)-4,5,13-trimethyl-3-thia-1,8,11,12-tetraazatricyclo[8.3.0.0^2,^6]trideca-2(6),4,7,10,12-pentaen-9-yl]acetamido}cyclobutoxy]pyridin-3-yl}acetamido)butanoyl]-4-hydroxy-N-[(1S)-1-[4-(4-methyl-1,3-thiazol-5-yl)phenyl]ethyl]pyrrolidine-2-carboxamide] | < 0.01 | 92.2 |

Reference: patent US11554171B2, “Compounds and methods for the targeted degradation of bromodomain-containing proteins” (Arvinas Operations, Inc., priority 2015, dated 2023)
